PubChem BioAssay AID248 (DTP/NCI, 2004)
Inconclusive results and toxic doses are left out. No stated cut-off is given here; in the data, active means T/C of 150% or more; inactive means T/C below 125%.

Tested on: L1210 leukemia ip in BDF1 mice, survival T/C
Assay: NCI In Vivo Anticancer Drug Screen. Data for tumor model L1210 Leukemia (intraperitoneal) in B6D2F1 (BDF1) mice
Conditions: endpoint: mean survival time, higher = longer survival
Summary of the method: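 Ratio derived from survival: compound-dosed mice over vehicle-dosed mice, all bearing a transplantable tumor.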

[1] = dose: 100.0 mg/kg/injection, schedule: Q01DX009 (ip), vehicle: Klucel (hydroxypropylcellulose) (HPC)
[2] = dose: 200.0 mg/kg/injection, schedule: Q01DX009 (ip), vehicle: Klucel (hydroxypropylcellulose) (HPC)
[3] = dose: 400.0 mg/kg/injection, schedule: Q01DX009 (ip), vehicle: Klucel (hydroxypropylcellulose) (HPC)
[4] = dose: 100.0 mg/kg/injection, schedule: Q01DX009 (ip), vehicle: saline with Tween-80
[5] = dose: 100.0 mg/kg/injection, schedule: Q04DX003 (ip), vehicle: saline with Tween-80
[6] = dose: 200.0 mg/kg/injection, schedule: Q01DX009 (ip), vehicle: saline with Tween-80
[7] = dose: 200.0 mg/kg/injection, schedule: Q04DX003 (ip), vehicle: saline with Tween-80
[8] = dose: 400.0 mg/kg/injection, schedule: Q04DX003 (ip), vehicle: saline with Tween-80

Measured: T/C

CN1CCNC(=O)CC1
inactive: dose: 25.0 mg/kg/injection, schedule: Q01DX009 (ip), vehicle: water 106 % of control | dose: 50.0 mg/kg/injection, schedule: Q01DX009 (ip), vehicle: water 102 % of control | dose: 100.0 mg/kg/injection, schedule: Q01DX009 (ip), vehicle: water 98 % of control | dose: 200.0 mg/kg/injection, schedule: Q01DX009 (ip), vehicle: water 114 % of control

CC(C)c1ccc(/C=C2\N=C(c3ccc([N+](=O)[O-])cc3)OC2=O)cc1
inactive: [1] 100 % of control | [2] 100 % of control | [3] 98 % of control

CSC(=O)Oc1ccc([N+](=O)[O-])cc1
inactive: [4] 106 % of control | [5] 104 % of control | [6] 96 % of control | [7] 100 % of control | dose: 400.0 mg/kg/injection, schedule: Q01DX009 (ip), vehicle: saline with Tween-80 101 % of control | [8] 91 % of control

C1CC[N-]CC1.Oc1ccccc1C=NCCN=Cc1ccccc1O.[CH3-].[Rh+2]
inactive: dose: 50.0 mg/kg/injection, schedule: Q01DX009 (ip), vehicle: saline with Tween-80 109 % of control | [4] 115 % of control | [5] 106 % of control | [6] 91 % of control | [7] 117 % of control

C[N+](C)(CCN1C(=O)c2ccc3c4c(ccc(c24)C1=O)C(=O)N(CC[N+](C)(C)Cc1ccccc1)C3=O)Cc1ccccc1
inactive: dose: 0.1 mg/kg/injection, schedule: Q01DX001 (ip), vehicle: saline 105 % of control | dose: 0.2 mg/kg/injection, schedule: Q01DX001 (ip), vehicle: saline 101 % of control | dose: 0.4 mg/kg/injection, schedule: Q01DX001 (ip), vehicle: saline 110 % of control | dose: 0.78 mg/kg/injection, schedule: Q01DX001 (ip), vehicle: saline 106 % of control

Cc1cc(N)c(C)c(CC#N)c1
inactive: dose: 50.0 mg/kg/injection, schedule: Q01DX009 (ip), vehicle: saline 97 % of control | dose: 100.0 mg/kg/injection, schedule: Q01DX009 (ip), vehicle: saline 118 % of control | dose: 200.0 mg/kg/injection, schedule: Q01DX009 (ip), vehicle: saline 90 % of control

CCOC(=O)c1cnc(SC)nc1Nc1c(Cl)cccc1Cl
inactive: [5] 96 % of control | [7] 94 % of control | [8] 94 % of control

C1CCC2(CC1)NN2
inactive: dose: 50.0 mg/kg/injection, schedule: Q01DX001 (ip), vehicle: water 101 % of control | dose: 100.0 mg/kg/injection, schedule: Q01DX001 (ip), vehicle: water 104 % of control | dose: 200.0 mg/kg/injection, schedule: Q01DX001 (ip), vehicle: water 98 % of control | dose: 400.0 mg/kg/injection, schedule: Q01DX001 (ip), vehicle: water 103 % of control

OC1CCCC23CCC12CC3 (stereo not drawn)
inactive: dose: 50.0 mg/kg/injection, schedule: Q01DX001 (ip), vehicle: saline with Tween-80 101 % of control | dose: 100.0 mg/kg/injection, schedule: Q01DX001 (ip), vehicle: saline with Tween-80 99 % of control | dose: 200.0 mg/kg/injection, schedule: Q01DX001 (ip), vehicle: saline with Tween-80 96 % of control

CCCCCCCCCCCC(=O)Nc1cc(C)ccc1N=Nc1ccc(C)cc1
inactive: dose: 50.0 mg/kg/injection, schedule: Q01DX009 (ip), vehicle: Klucel (hydroxypropylcellulose) (HPC) 86 % of control | [1] 95 % of control | [2] 88 % of control | [3] 90 % of control

C[C@]12CCC(=O)C=C1CC[C@@H]1[C@@H]2C(=O)C[C@@]2(C)[C@H]1CC[C@]2(O)C(=O)COP(=O)(Nc1ccccc1)Nc1ccccc1
inactive: dose: 50.0 mg/kg/injection, schedule: Q01DX001 (sc), vehicle: steriod suspending solution 102 % of control | dose: 100.0 mg/kg/injection, schedule: Q01DX001 (sc), vehicle: steriod suspending solution 98 % of control | dose: 200.0 mg/kg/injection, schedule: Q01DX001 (sc), vehicle: steriod suspending solution 102 % of control | dose: 400.0 mg/kg/injection, schedule: Q01DX001 (sc), vehicle: steriod suspending solution 98 % of control
